The test deals with Dihydrofolate reductase (Escherichia coli, UniProt P0ABQ4). Nature of the test: Inhibition of Escherichia coli dihydrofolate reductase.
Sequence of Dihydrofolate reductase (P0ABQ4 whole entry, looked up): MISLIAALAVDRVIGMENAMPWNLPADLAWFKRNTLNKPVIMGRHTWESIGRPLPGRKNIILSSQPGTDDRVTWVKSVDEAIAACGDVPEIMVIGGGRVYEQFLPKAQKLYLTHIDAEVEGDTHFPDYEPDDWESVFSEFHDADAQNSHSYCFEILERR
`CC(C)(C)c1cccc(OCc2cccc(N3C(N)=NC(N)=NC3(C)C)c2)c1`: the affinity, expressed as Ki, was 871 nM.

With `CCCCCCCCCCCCOc1cccc(N2C(N)=NC(N)=NC2(C)C)c1`, the affinity corresponds to a Ki of 1320 nM.

Turning to `CC1(C)N=C(N)N=C(N)N1c1cccc(OCc2ccc(Cl)c(Cl)c2)c1`, the inhibitory constant (Ki) amounted to 708 nM.

`CC1(C)N=C(N)N=C(N)N1c1cccc(COc2cccc(NC(N)=S)c2)c1` returned a Ki of 676 nM.

In turn, `CC1(C)N=C(N)N=C(N)N1c1cccc(COc2cccc(Cl)c2)c1` [1-[3-(3-Chloro-phenoxymethyl)-phenyl]-6,6-dimethyl-1,6-dihydro-[1,3,5]triazine-2,4-diamine] displayed a Ki of 977 nM.

`CCc1cccc(OCc2cccc(N3C(N)=NC(N)=NC3(C)C)c2)c1` [1-[3-(3-Ethyl-phenoxymethyl)-phenyl]-6,6-dimethyl-1,6-dihydro-[1,3,5]triazine-2,4-diamine]: the Ki stood at 1120 nM.

`COc1cccc(OCc2cccc(N3C(N)=NC(N)=NC3(C)C)c2)c1` [1-[3-(3-Methoxy-phenoxymethyl)-phenyl]-6,6-dimethyl-1,6-dihydro-[1,3,5]triazine-2,4-diamine] yielded a Ki of 955 nM.

`CC1(C)N=C(N)N=C(N)N1c1cccc(COc2cccc(C#N)c2)c1` [3-[3-(4,6-Diamino-2,2-dimethyl-2H-[1,3,5]triazin-1-yl)-benzyloxy]-benzonitrile] returned a Ki of 891 nM.

The molecule `Cc1cccc(OCc2cccc(N3C(N)=NC(N)=NC3(C)C)c2)c1` [6,6-Dimethyl-1-(3-m-tolyloxymethyl-phenyl)-1,6-dihydro-[1,3,5]triazine-2,4-diamine] displayed a Ki of 537 nM.

Regarding `CCCCCCCCCCCCCCOc1cccc(N2C(N)=NC(N)=NC2(C)C)c1` [6,6-Dimethyl-1-(3-tetradecyloxy-phenyl)-1,6-dihydro-[1,3,5]triazine-2,4-diamine], affinity was put at a Ki of 1410 nM.

Consider `CCCCCCCCCCCOc1cccc(N2C(N)=NC(N)=NC2(C)C)c1` [6,6-Dimethyl-1-(3-undecyloxy-phenyl)-1,6-dihydro-[1,3,5]triazine-2,4-diamine], for which the Ki stood at 646 nM.

As to `CC1(C)N=C(N)N=C(N)N1c1cccc(COc2cccc(CO)c2)c1` [{3-[3-(4,6-Diamino-2,2-dimethyl-2H-[1,3,5]triazin-1-yl)-benzyloxy]-phenyl}-methanol], the inhibitory constant (Ki) was determined as 646 nM.

On to `CC1(C)N=C(N)N=C(N)N1c1cccc(COc2cccc(NC(N)=O)c2)c1` [{3-[3-(4,6-Diamino-2,2-dimethyl-2H-[1,3,5]triazin-1-yl)-benzyloxy]-phenyl}-urea], for which the affinity corresponds to a Ki of 1230 nM.

A word on the Ki: it is a measure of affinity in units of concentration, obtained from inhibition or displacement. Low readings indicate higher affinity, high ones lower affinity.

The record behind these values is BindingDB's records for doi:10.1021/jm00150a026 (1985).
